Consider 8 compounds from patent publication US6242601A, “Heterocyclic sulfamides” (Hoffman-La Roche Inc., priority 1999, dated 2001).

The IC50 is the concentration at which inhibition is half-maximal.

The target in data set [1] is T1, isolated rat aorta rings (Rattus norvegicus, UniProt P26684).
T1 construct: Rings with a length of 5 mm were cut out from the thorax aorta of adult Wistar-Kyoto rats; from tissue; host or cells: thoracic aorta of adult Wistar-Kyoto rats, endothelium removed
T1 sequence (P26684 21-426): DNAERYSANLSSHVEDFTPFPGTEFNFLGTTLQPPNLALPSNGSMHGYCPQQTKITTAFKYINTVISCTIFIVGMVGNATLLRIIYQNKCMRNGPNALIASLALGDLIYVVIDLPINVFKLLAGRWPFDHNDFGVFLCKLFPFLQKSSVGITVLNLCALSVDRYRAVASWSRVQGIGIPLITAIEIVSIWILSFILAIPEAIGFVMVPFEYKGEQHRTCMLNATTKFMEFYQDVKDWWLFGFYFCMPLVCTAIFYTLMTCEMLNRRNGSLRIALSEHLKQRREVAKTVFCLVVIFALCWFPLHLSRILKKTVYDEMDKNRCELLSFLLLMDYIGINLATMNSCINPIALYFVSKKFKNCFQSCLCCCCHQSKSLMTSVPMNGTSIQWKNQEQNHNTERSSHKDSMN
Description: Inhibition of endothelin-induced contractions in isolated rat aorta rings. The note with it: rat aorta rings without endothelium, 37° C.; endothelin-1 cumulative; from dose ratio; read-out: pA2 (converted). More on the design: species or system adult Wistar-Kyoto rats. As to the method:
Rings with a length of 5 mm were cut out from the thorax aorta of adult Wistar-Kyoto rats. The endothelium was removed by lightly rubbing the internal surface. Each ring was immersed at 37° C. in 10 ml of Krebs-Henseleit solution in an isolated bath while gassing with 95% O2 and 5% CO2. The isometric stretching of the rings was measured. The rings were stretched to a pre-tension of 3 g.
The corresponding pA2 value, which is a measure of the activity of the test compound, was calculated using a computer programme according to the following equation from the "dose ratio" DR for each individual dosage-activity curve.
pA2 =log(DR-1)-log(antagonist-concentration)

Data set [2] deals with T2, recombinant human ETA receptors (Homo sapiens, UniProt P25101).
T2 sequence (P25101 21-427): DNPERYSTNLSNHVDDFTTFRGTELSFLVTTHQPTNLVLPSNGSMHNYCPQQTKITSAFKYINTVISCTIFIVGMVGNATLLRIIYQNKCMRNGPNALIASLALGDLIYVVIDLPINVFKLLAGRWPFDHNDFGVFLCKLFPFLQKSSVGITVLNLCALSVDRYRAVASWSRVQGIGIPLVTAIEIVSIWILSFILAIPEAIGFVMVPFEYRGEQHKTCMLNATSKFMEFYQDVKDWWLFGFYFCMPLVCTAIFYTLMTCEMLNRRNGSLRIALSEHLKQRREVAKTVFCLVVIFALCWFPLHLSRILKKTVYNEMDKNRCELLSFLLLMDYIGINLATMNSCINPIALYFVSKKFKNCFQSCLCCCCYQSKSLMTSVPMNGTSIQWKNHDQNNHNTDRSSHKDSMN
Description: Inhibition of endothelin binding on recombinant human ETA receptors expressed in CHO cells ([125I]ET-1, whole attached cells). More on the design: expressed in transfected cells; host or cells: CHO cells. The conditions noted are these: 35 pM [125I]ET-1, 2 h, 22° C. Here is the method:
II. […] Cell culture. CHO cells, expressing recombinant human ETA receptor are grown in Minimal Essential Alpha Medium (Gibco Laboratories, Paisley, Scotland) supplemented with 0.1 μM methotrexate, 5% dialyzed fetal calf serum, 100 U/ml of penicillin and 100 μg/ml of streptomycin. Binding assays with whole attached cells are performed in 500 μl Dulbecco's Eagle medium (DMEM) containing 2 mg/ml bovine serum albumin and 25 mM Hepes. After incubation (2 h, 22° C.) in the presence of 35 pM [^125 I]ET-1 and increasing concentrations of various antagonists, the cells are extensively washed and finally solubilized in 1% (w/v) SDS, 0.5 M NaOH and 100 mM EDTA. Each assay is performed three times in triplicates and non specific binding is assessed in the presence of 100 nM unlabelled ET-1. Specific binding is defined as the difference between total binding and non specific binding. IC50 values are determined after logit/log transformation of the binding data.

The nature of data set [3]: Pharmacokinetics of the endothelin receptor antagonists after oral gavage in rats. It is filed as in vivo. The note with it: rat, plasma, 5 mg/kg in DMSO, Wistar rats, bioassay; for AUC: read-out: Area under the plasma concentration time curve; for Cmax: read-out: Peak concentration in rat plasma. Here is the method: IV. […] The test compounds were dissolved in DMSO at a concentration of 5 mg/mL and administered orally by gavage at a dose of 1 mL/kg body weight corresponding to 5 mg/kg body weight. Two rats were administered per test compound. Blood samples were collected from the retro-orbital sinus at 1 and 5 h post dose in one rat, and at 3 and 7 h post dose in the other rat. In addition a terminal 24 h blood sample was collected from both rats by heart puncture. Blood was collected on EDTA-NaF. Plasma was derived by centrifugation at 2000 g at +4° C. for 15 min. Plasma samples were assayed for active drug related material with a bioassay, based on the binding competition of tested compounds and ^125 I ET-1 on recombinant ETA receptors. Quantitation of plasma samples was by comparison to a calibration curve build up from control rat plasma spiked with known concentrations of the test compounds.

For the compound `COc1ccccc1Oc1c(NS(=O)(=O)c2ccc(C)cn2)nc(-c2cccc(O)c2)nc1OC` [Example 1, 5-methyl-pyridine-2-sulfonic acid [2-(3-hydroxy-phenyl)-6-methoxy-5-(2-methoxy-phenoxy)-pyrimidin-4-yl]-amide], in data set [1], the Kb is no more than 6.31 nM. Further, the IC50 in data set [2] was no more than 10 nM.
As to `COc1ccccc1Oc1c(NS(=O)(=O)c2ccc(C)cn2)nc(-c2cccc(OCCO)c2)nc1OC` [Example 7, 5-methyl-pyridine-2-sulfonic acid [2-[3-(2-hydroxy-ethoxy)-phenyl]-6-methoxy-5-(2-methoxy-phenoxy)-pyrimidin-4-yl]-amide], in data set [1], the Kb is no more than 6.31 nM. Further, in data set [3], the AUC is no less than 10000 ng·h/mL and the Cmax was no less than 1500 ng/mL. Moreover, the IC50 in data set [2] is no more than 10 nM.
Take `COc1ccccc1Oc1c(NS(=O)(=O)c2ccc(C)cn2)nc(-c2ccnc(C(=O)O)c2)nc1OC` [Example 21, 4-[4-methoxy-5-(2-methoxy-phenoxy)-6-(5-methyl-pyridine-2-sulfonylamino)-pyrimidin-2-yl]-pyridine-2-carboxylic acid]: the Kb in data set [1] is no more than 6.31 nM. Besides, in data set [2], the IC50 was no more than 10 nM.
On to `CCOC(=O)c1cc(-c2nc(NS(=O)(=O)c3ccc(C)cn3)c(Oc3ccccc3OC)c(OC)n2)ccn1` [Example 23, 4-[4-methoxy-5-(2-methoxy-phenoxy)-6-(5-methyl-pyridine-2-sulfonylamino)-pyrimidin-2-yl]-pyridine-2-carboxylic acid ethyl ester], for which, in data set [1], the Kb was no more than 6.31 nM. The IC50 in data set [2] was no more than 10 nM.
Regarding `COc1ccccc1Oc1c(NS(=O)(=O)c2ccc(C)cn2)nc(-c2ccnc(-c3noc(C)n3)c2)nc1OC` [Example 35, 5-methyl-pyridine-2-sulfonic acid {6-methoxy-5-(2-methoxy-phenoxy)-2-[2-(5-methyl-[1,2,4]oxadiazol-3-yl)-pyridin-4-yl]-pyrimidin-4-yl}-amide], the Kb in data set [1] was no more than 6.31 nM. In addition, in data set [3], the AUC was no less than 10000 ng·h/mL and the Cmax is no less than 1500 ng/mL.
For the compound `COc1ccccc1Oc1c(NS(=O)(=O)c2ccc(C(C)C)cn2)nc(-c2ccnc(C(N)=O)c2)nc1OC` [Example 42, 4-[4-(5-isopropyl-pyridine-2-sulfonylamino)-6-methoxy-5-(2-methoxy-phenoxy)-pyrimidin-2-yl]-pyridine-2-carboxylic acid amide], the Kb in data set [1] was no more than 6.31 nM. Also, in data set [3], the AUC was no less than 10000 ng·h/mL and the Cmax was no less than 1500 ng/mL.
Take `COc1ccccc1Oc1c(NS(=O)(=O)c2ccc(C(C)C)cn2)nc(-c2ccnc(CNC(C)=O)c2)nc1OC` [Example 52, N-{4-[4-(5-isopropyl-pyridine-2-sulfonylamino)-6-methoxy-5-(2-methoxy-phenoxy)-pyrimidin-2-yl]-pyridin-2-ylmethyl}-acetamide]: in data set [1], the Kb is no more than 6.31 nM. Also, in data set [3], the AUC is no less than 10000 ng·h/mL and the Cmax is no less than 1500 ng/mL.
Take `COc1ccccc1Oc1c(NS(=O)(=O)c2ccc(C(C)C)cn2)nc(-c2ccnc(C(=N)NO)c2)nc1OC` [Example 55, N-hydroxy-4-[4-(5-isopropyl-pyridine-2-sulfonylamino)-6-methoxy-5-(2-methoxy-phenoxy)-pyrimidin-2-yl]-pyridine-2-carboxamidine]: the Kb in data set [1] is no more than 6.31 nM. For the same compound, in data set [2], the IC50 was no more than 10 nM.
